Measured values as given in US8173654B2, “Triazolopyridazine compounds” (Janssen Pharmaceutica N.V., priority 2005, dated 2012).

What was measured:
[1] = target: T1, c-Met (Homo sapiens, UniProt P08581); test: Delfia autophosphorylation kinase assay on the c-Met; assay type: biochemical; design: The purified His6 tagged cytoplasmic domain of c-Met was diluted to a concentration of 500 ng/ml; host or cells: Sf9 insect cells (baculovirus, pFastBacHTa); details: His6 tagged cytoplasmic domain of c-Met, 1 μM ATP; read-out: cMet Delfia autophos IC-50
Description: A DELFIA time resolved fluorescence assay was developed for screening of compounds that decreases the autophosphorylation thus the kinase activity of c-Met. The DELFIA assay is non-radioactive. The autophosphorylation of the c-Met is measured by an anti-phosphotyrosine antibody coupled to an Europium tag.
A major advantage of this format is that it allowed for the development of an autophosphorylation assay using Ni-chelate plates which bind the hexa-his tag on the recombinant Met kinase. The autophosphorylation assay allows one to use a known substrate, Met kinase itself, for the phosphorylation.
The assay procedure for screening is as follows. The purified His6 tagged cytoplasmic domain of c-Met was diluted to a concentration of 500 ng/ml in enzyme dilution buffer (50 mM Tris-HCl, pH8.0, 0.1% BSA) and dispensed to assay plates at a volume of 50 μl per well. Black opaque HisGrab Nickel coated 96 well plates (Pierce, Rockford, Ill.) were selected for use. Next, 2.5 μl of compound in 40% DMSO was added to test wells, 2.5 μl of 40% DMSO only was added to the negative control wells. The autophosphorylation reaction was initiated upon the addition of 50 μl of reaction buffer, 50 mM Tris-HCl, pH 8.0, 10 mM MgCl2, 0.1 mM Na3VO4, 1 mM DTT, 1 μM ATP. Plates were incubated at room temperature for 1 hour followed by 2 washes with 200 μl/well of PBS. Europium conjugated anti-phosphotyrosine antibody, Eu-PY20 from Perkin Elmer was diluted to 50 ng/ml in Delfia AB buffer (Perkin Elmer, Boston, Mass.), added to the 96 well assay plates at a volume of 100 μl/well, and incubated at room temperature for 2 hours. Assay plates were then washed 4 times each with 200 μl/well of Delfia wash buffer (Perkin Elmer). After the final wash 150 μl of Delfia Enhancement solution (Perkin Elmer) was added to each well of the assay plate and incubated at room temperature for 1 hour. Plates were read on an LJL Analyst instrument (Molecular Devices; Sunnyvale, Calif.) with filter settings of 360 excitation, 620 emission, and 410 dichroic. IC50 values were calculated using Graphpad Prism software (Graphpad Software; San Diego, Calif.).
Target sequence in this assay (P08581 956-1390 limits assumed): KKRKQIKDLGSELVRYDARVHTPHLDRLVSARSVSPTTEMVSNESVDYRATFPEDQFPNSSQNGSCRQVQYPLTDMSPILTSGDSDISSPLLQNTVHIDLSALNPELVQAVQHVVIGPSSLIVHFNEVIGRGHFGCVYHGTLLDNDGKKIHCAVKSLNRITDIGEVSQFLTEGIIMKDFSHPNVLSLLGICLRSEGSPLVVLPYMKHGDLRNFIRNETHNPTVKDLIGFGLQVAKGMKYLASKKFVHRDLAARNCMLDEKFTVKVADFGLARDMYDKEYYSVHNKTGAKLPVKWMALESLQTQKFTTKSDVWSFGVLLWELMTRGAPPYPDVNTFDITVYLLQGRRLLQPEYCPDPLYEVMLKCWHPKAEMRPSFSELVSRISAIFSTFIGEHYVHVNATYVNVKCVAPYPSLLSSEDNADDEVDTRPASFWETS

[2] = target: T1, c-Met; test: Cell based ELISA assay for HGF stimulated c-Met phosphorylation in S114 cells; design: expressed in transfected cells; host or cells: S114 (murine NIH 3T3 derived); details: read-out: c-Met Cell ELISA IC-50
Description: A cell based ELISA assay was developed to evaluate the ability of compounds to inhibit HGF stimulated c-Met phosphorylation in cells.
S114 cells were seeded to a 96 well tissue culture treated dish at a concentration of 5×10^4 per well. After a 16-20 hour incubation, culture medium was removed and replaced with serum free medium supplemented with 0.5% BSA. Test compound was then added and incubated with the cells for 60 minutes, followed by the addition of 1 μl HGF at […] for 15 minutes. […] Following another 1 hour incubation at room temperature the plates were washed three times with Delfia wash buffer (Perkin Elmer). After the final wash, […] of Delfia enhancer solution (Perkin Elmer) was added and allowed to incubate for 60 minutes. Plates were read on an LJL Analyst instrument (Molecular Devices; Sunnyvale, Calif.) with filter settings of 360 excitation, 620 emission, and 410 dichroic. IC50 values were calculated using Graphpad Prism software (Graphpad Software; San Diego, Calif.).
Target sequence in this assay (P08581 25-1390): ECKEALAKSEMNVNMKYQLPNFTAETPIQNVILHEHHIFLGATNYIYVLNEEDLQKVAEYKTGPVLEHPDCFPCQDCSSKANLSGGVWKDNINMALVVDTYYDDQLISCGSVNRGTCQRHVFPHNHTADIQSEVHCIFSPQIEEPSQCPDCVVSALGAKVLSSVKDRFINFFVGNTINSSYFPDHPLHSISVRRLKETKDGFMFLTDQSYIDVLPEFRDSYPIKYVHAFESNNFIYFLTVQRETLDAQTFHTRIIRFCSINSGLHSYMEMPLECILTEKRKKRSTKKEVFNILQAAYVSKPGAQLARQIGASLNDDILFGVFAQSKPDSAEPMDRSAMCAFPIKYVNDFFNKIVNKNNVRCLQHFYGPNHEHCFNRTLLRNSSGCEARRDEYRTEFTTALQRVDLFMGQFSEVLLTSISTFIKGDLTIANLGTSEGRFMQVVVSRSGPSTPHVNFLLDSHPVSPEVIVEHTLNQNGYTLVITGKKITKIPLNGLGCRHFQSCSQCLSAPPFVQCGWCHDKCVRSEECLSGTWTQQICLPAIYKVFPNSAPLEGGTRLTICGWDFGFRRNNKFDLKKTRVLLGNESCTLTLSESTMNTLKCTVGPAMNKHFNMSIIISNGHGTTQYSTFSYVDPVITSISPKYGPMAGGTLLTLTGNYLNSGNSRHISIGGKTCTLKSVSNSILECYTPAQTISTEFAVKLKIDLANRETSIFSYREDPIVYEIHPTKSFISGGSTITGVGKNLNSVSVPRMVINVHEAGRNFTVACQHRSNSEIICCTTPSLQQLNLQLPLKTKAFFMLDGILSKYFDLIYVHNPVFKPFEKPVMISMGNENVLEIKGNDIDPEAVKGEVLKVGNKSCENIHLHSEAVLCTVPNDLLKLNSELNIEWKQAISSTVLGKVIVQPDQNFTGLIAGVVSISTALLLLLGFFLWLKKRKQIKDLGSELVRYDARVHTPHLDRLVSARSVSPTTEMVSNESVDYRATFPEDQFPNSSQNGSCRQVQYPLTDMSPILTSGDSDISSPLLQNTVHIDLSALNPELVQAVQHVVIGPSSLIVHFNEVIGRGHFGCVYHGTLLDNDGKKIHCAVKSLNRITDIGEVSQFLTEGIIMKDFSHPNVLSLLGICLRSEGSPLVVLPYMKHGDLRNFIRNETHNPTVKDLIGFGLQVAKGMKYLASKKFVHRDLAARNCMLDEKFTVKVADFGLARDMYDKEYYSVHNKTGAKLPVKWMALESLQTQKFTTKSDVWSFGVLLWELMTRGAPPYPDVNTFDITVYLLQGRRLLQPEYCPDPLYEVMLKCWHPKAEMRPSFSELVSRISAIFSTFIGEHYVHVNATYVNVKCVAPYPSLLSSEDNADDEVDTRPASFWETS

Row | SMILES | IC50 [1] [nM] | IC50 [2] [nM]
1 | CS(=O)(=O)N1CCN(C(=O)c2ccc(-c3ccc4nnc(Cc5ccc6ncccc6c5)n4n3)s2)CC1 [Example 56, (4-Methanesulfonyl-piperazin-1-yl)-[5-(3-quinolin-6-ylmethyl-[1,2,4]triazolo[4,3-b]pyridazin-6-yl)-thiophen-2-yl]-methanone] | 0.9 | 23
2 | COc1ccc(C(F)(F)c2nnc3ccc(-c4cccs4)nn23)cc1 [Example 58, 3-[Difluoro-(4-methoxy-phenyl)-methyl]-6-thiophen-2-yl-[1,2,4]triazolo[4,3-b]pyridazine] | 95 | 314
3 | FC(F)(c1ccc2ncccc2c1)c1nnc2ccc(-c3cccnc3)nn12 [Example 59, 6-[Difluoro-(6-pyridin-3-yl-[1,2,4]triazolo[4,3-b]pyridazin-3-yl)-methyl]-quinoline] | 3 | 8
4 | Cn1cc(-c2ccc3nnc(Cc4ccc5c(c4)CCO5)n3n2)cn1 [Example 62, 3-(2,3-Dihydro-benzofuran-5-ylmethyl)-6-(1-methyl-1H-pyrazol-4-yl)-[1,2,4]triazolo[4,3-b]pyridazine] | 20 | 270
5 | c1cnc2ccc(Cc3nnc4ccc(-c5cncnc5)nn34)cc2c1 [Example 64, 6-(6-Pyrimidin-5-yl-[1,2,4]triazolo[4,3-b]pyridazin-3-ylmethyl)-quinoline] | 17 | 170
6 | c1cnc2ccc(Cc3nnc4ccc(-c5cnc6ccccc6c5)nn34)cc2c1 [Example 65, 6-(6-Quinolin-3-yl-[1,2,4]triazolo[4,3-b]pyridazin-3-ylmethyl)-quinoline] | 0.3 | 2
7 | FC(F)(c1ccc2ncccc2c1)c1nnc2ccc(-c3cnc4ccccc4c3)nn12 [Example 66, 6-[Difluoro-(6-quinolin-3-yl-[1,2,4]triazolo[4,3-b]pyridazin-3-yl)-methyl]-quinoline] | 0.9 | 5
8 | COc1ccc(Cn2cnc3ccc(Cc4nnc5ccc(-c6cccnc6)nn45)cc3c2=O)cc1 [Example 68, 3-(4-Methoxy-benzyl)-6-(6-pyridin-3-yl-[1,2,4]triazolo[4,3-b]pyridazin-3-ylmethyl)-3H quinazolin-4-one] | 2 | 30
9 | O=c1[nH]cnc2ccc(Cc3nnc4ccc(-c5cccnc5)nn34)cc12 [Example 69, 6-(6-Pyridin-3-yl-[1,2,4]triazolo[4,3-b]pyridazin-3-ylmethyl)-3H-quinazolin-4-one] | 17 | > 1000
10 | Cn1cc(-c2ccc3nnc(Cc4ccc5ncncc5c4)n3n2)cn1 [Example 70, 6-[6-(1-Methyl-1H-pyrazol-4-yl)-[1,2,4]triazolo[4,3-b]pyridazin-3-ylmethyl]-quinazoline] | 25 | 140
11 | Cn1cc(-c2ccc3nnc(Cc4ccc5nccnc5c4)n3n2)cn1 [Example 71, 6-[6-(1-Methyl-1H-pyrazol-4-yl)-[1,2,4]triazolo[4,3-b]pyridazin-3-ylmethyl]-quinoxaline] | 20 | 99
12 | c1cnc2ccc(Cc3nnc4ccc(-c5cc6ccccc6s5)nn34)cc2c1 [Example 72, 6-(6-Benzo[b]thiophen-2-yl-[1,2,4]triazolo[4,3-b]pyridazin-3-ylmethyl)-quinoline] | 0.3 | 0.2
13 | [O-][n+]1cccc2cc(Cc3nnc4ccc(-c5cn[nH]c5)nn34)ccc21 [Example 73, 6-[6-(1H-Pyrazol-4-yl)-[1,2,4]triazolo[4,3-b]pyridazin-3-ylmethyl]-quinolin-1-ol] | 0.1 | 0.5
14 | OCCCn1cc(-c2ccc3nnc(Cc4ccc5ncccc5c4)n3n2)cn1 [Example 75, 3-[4(3-Quinolin-6-ylmethyl-[1,2,4]triazolo[4,3-b]pyridazin-6-yl)-pyrazol-1-yl]-propan-1-ol] | 0.8 | 60
15 | c1cnc2ccc(Cc3nnc4ccc(-c5cn[nH]c5)nn34)cc2c1 [Example 76, 6-[6-(1H-Pyrazol-4-yl)-[1,2,4]triazolo[4,3-b]pyridazin-3-ylmethyl]-quinoline] | 4 | 180
16 | Clc1ccc(-c2ccc3nnc(Cc4ccc5ncccc5c4)n3n2)s1 [Example 77] | 1.5 | 2

The next lines start with the values.

Row | IC50 [1] [nM] | IC50 [2] [nM] | SMILES
17 | 30 | 3300 | Cc1nc2ccc(-c3ccc4nnc(Cc5ccc6ncccc6c5)n4n3)cc2[nH]1 [Example 79, 6-[6-(2-Methyl-3H-benzoimidazol-5-yl)-[1,2,4]triazolo[4,3-b]pyridazin-3-ylmethyl]-quinoline]
18 | 53 | 260 | Cn1ccc2cc(-c3ccc4nnc(Cc5ccc6ncccc6c5)n4n3)ccc21 [Example 85, 6-[6-(1-Methyl-1H-indol-5-yl)-[1,2,4]triazolo[4,3-b]pyridazin-3-ylmethyl]-quinoline]
19 | 0.6 | 4 | Cc1cc(-c2ccc3nnc(Cc4ccc5ncccc5c4)n3n2)ccn1 [Example 87, 6-[6-(2-Methyl-pyridin-4-yl)-[1,2,4]triazolo[4,3-b]pyridazin-3-ylmethyl]-quinoline]
20 | 2 | 50 | Nc1ccc(-c2ccc3nnc(Cc4ccc5ncccc5c4)n3n2)cn1 [Example 88, 5-(3-Quinolin-6-ylmethyl-[1,2,4]triazolo[4,3-b]pyridazin-6-yl)-pyridin-2-ylamine]
21 | 4 | 230 | COc1ccc(-c2ccc3nnc(Cc4ccc5ncccc5c4)n3n2)cn1 [Example 89, 6-[6-(6-Methoxy-pyridin-3-yl)-[1,2,4]triazolo[4,3-b]pyridazin-3-ylmethyl]-quinoline]
22 | 3 | 540 | O=c1ccc(-c2ccc3nnc(Cc4ccc5ncccc5c4)n3n2)c[nH]1 [Example 90, 5-(3-Quinolin-6-ylmethyl-[1,2,4]triazolo[4,3-b]pyridazin-6-yl)-1H-pyridin-2-one]
23 | 4 | 10 | Cc1nc2ccc(Cc3nnc4ccc(-c5cccnc5)nn34)cc2s1 [Example 92, 3-(2-Methyl-benzothiazol-6-ylmethyl)-6-pyridin-3-yl-[1,2,4]triazolo[4,3-b]pyridazine]
24 | 4 | 130 | Cn1cc(-c2ccc3nnc(Cc4ccc5nc(N)sc5c4)n3n2)cn1 [Example 93, 6-[6-(1-Methyl-1H-pyrazol-4-yl)-[1,2,4]triazolo[4,3-b]pyridazin-3-ylmethyl]-benzothiazol-2-ylamine]
25 | 30 | 640 | CN(C)c1nc2ccc(Cc3nnc4ccc(-c5cnn(C)c5)nn34)cc2s1 [Example 94, Dimethyl-{6-[6-(1-methyl-1H-pyrazol-4-yl)-[1,2,4]triazolo[4,3-b]pyridazin-3-ylmethyl]-benzothiazol-2-yl}-amine]
26 | 1 | 9 | Clc1cc(-c2ccc3nnc(Cc4ccc5ncccc5c4)n3n2)ccn1 [Example 95, 6-[6-(2-Chloro-pyridin-4-yl)-[1,2,4]triazolo[4,3-b]pyridazin-3-ylmethyl]-quinoline]
27 | 12 | 160 | N#Cc1ccc(-c2ccc3nnc(Cc4ccc5ncccc5c4)n3n2)cn1 [Example 96, 5-(3-Quinolin-6-ylmethyl-[1,2,4]triazolo[4,3-b]pyridazin-6-yl)-pyridine-2-carbonitrile]
28 | 5 | 140 | C#Cc1cc(-c2ccc3nnc(C(F)(F)c4ccc5ncccc5c4)n3n2)ccn1 [Example 100, 6-{[6-(2-Ethynyl-pyridin-4-yl)-[1,2,4]triazolo[4,3-b]pyridazin-3-yl]-difluoro-methyl}-quinoline]
